Target: T1, human sodium glucose cotransporter 2 (Homo sapiens, UniProt P31639)
T1 construct: expressed in transfected cells; host or cells: CHO-K1 (ATCC No. CCL 61) or HEK293 (ATCC No. CRL-1573), stably transfected with pZeoSV-hSGLT2
T1 sequence (P31639 1-672): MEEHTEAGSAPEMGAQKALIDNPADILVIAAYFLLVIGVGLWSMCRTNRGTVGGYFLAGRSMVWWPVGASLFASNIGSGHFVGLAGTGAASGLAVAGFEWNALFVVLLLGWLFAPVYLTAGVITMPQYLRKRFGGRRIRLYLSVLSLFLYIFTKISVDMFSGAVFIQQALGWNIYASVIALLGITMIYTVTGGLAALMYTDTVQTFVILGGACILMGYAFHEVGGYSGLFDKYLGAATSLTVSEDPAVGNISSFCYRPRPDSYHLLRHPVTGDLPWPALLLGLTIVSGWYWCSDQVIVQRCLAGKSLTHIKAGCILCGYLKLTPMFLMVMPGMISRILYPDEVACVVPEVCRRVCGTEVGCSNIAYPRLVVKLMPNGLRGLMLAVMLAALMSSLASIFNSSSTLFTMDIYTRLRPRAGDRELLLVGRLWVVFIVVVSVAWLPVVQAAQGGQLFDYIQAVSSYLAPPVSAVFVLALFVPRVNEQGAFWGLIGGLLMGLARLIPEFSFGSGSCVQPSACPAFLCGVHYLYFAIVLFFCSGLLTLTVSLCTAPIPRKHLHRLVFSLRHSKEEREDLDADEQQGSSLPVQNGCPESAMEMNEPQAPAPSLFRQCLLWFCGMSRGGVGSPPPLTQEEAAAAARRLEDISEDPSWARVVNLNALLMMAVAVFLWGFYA
Experiment: SGLT-2 assay (14C-AMG uptake in CHO-hSGLT2 or HEK-hSGLT2 cells)
Format: cell-based
Conditions: inhibition of 14C-AMG uptake; CHO-K1 or HEK293 cells stably transfected with hSGLT2; 2 hours' incubation at 37° C.
Experimental: These cell lines transport ^14C-labelled alpha-methyl-glucopyranoside (14C-AMG, Amersham) into the interior of the cell in sodium-dependent manner.
The SGLT-2 assay is carried out as follows:
CHO-hSGLT2 cells are cultivated in Ham's F12 Medium (BioWhittaker) with 10% foetal calf serum and 250 μg/ml zeocin (Invitrogen), and HEK293-hSGLT2 cells are cultivated in DMEM medium with 10% foetal calf serum and 250 μg/ml zeocin (Invitrogen).
The cells are detached from the culture flasks by washing twice with PBS and subsequently treating with trypsin/EDTA. After the addition of cell culture medium the cells are centrifuged, resuspended in culture medium and counted in a Casy cell counter. Then 40,000 cells per well are seeded into a white, 96-well plate coated with poly-D-lysine and incubated overnight at 37° C., 5% CO2. The cells are washed twice with 250 μl of assay buffer (Hanks Balanced Salt Solution, 137 mM NaCl, 5.4 mM KCl, 2.8 mM CaCl2, 1.2 mM MgSO4 and 10 mM HEPES (pH7.4), 50 μg/ml of gentamycin). Two hundred-fifty microliters of assay buffer and 5 μl of test compound are then added to each well and the plate is incubated for a further 15 minutes in the incubator. Five microliters of 10% DMSO are used as the negative control. […] After this incubation the radioactivity of the ^14C-AMG absorbed is measured in a Topcount (Packard) using a ^14C scintillation program.

EC50: ~5 nM
SMILES: CCc1ccc(Cc2c(O[C@@H]3O[C@H](CO)[C@@H](O)[C@H](O)[C@H]3O)nn(C3CCOCC3)c2C)cc1 [compound (4) of Example 3, 1-(tetrahydropyran-4-yl)-3-(β-D-glucopyranosyloxy)-4-(4-ethylbenzyl)-5-methyl-1H-pyrazole]

— patent US7375090B2, “Glucopyranosyloxy-pyrazoles, pharmaceutical compositions containing these compounds, the use thereof and processed for the preparation thereof” (Boehringer Ingelheim International GmbH, priority 2003, dated 2008)
